Results: publication PMC6982702, “Extensive Structure Modification on Luteolin-Cinnamic Acid Conjugates Leading to BACE1 Inhibitors with Optimal Pharmacological Properties” (Molecules, 2019)
Values joined by “and” are separate entries in the source; they are usually repeats but may differ in a detail not shown here. Equal values may be shown once. Read-outs that look alike come from different tables or passages of the source.

Experiments:
BACE1 [1] = target: T1, BACE1 (Homo sapiens, UniProt P56817); assay: In vitro BACE1 FRET enzyme assay; assay type: biochemical; settings: for inhibition at 10 µM: read-out: Inhibition Rate at 10 μM (%); for selectivity on BACE1 over BACE2 and renin: from IC50 values of Table 6
T1 construct: purchased PanVera Co. (Invitrogen, USA)
Method: The BACE1 FRET assay kit was purchased from the PanVera Co. (Invitrogen, USA). The assay was carried out according to the supplied manual with modifications. […] The fluorescence intensity was measured with a TECAN infinite 200 microplate reader for 60 min at 25 °C in the dark. […] The percent inhibition (%) was obtained by the following equation: Inhibition % = (1 −SS/SC) × 100%, where SC is the slope of fluorescence change of the control (enzyme, buffer, and substrate) during 60 min, and SS is the slope of fluorescence change of the tested samples (enzyme, sample solution, and substrate) during 60 min of measurement. IC50 values were calculated from the nonlinear curve fitting of percentage inhibition against inhibitor concentration using Prism 3.0 software (GraphPad Software, San Diego, CA, USA).

[2] = tested on: Aβ-38, Aβ-40, Aβ-42 in HEK293 cells stably overexpressing human APP695; assay: Inhibition of Aβ production in APP overexpressed cells (V-Plex Aβ Peptide Panel immunoassay); assay type: cell-based; settings: for Aβ levels: higher concentrations (10, 25, and 50 µM), 23 h; for Aβ levels / Aβ-42 levels: DMSO = 100%
Method: To assess the cellular BACE1 inhibitory activity of the conjugates, 7a–d, 7i, and 7k were incubated in APP overexpressing HEK293 cells and their inhibition on the three main Aβ species Aβ-38, Aβ-40, and Aβ-42—the main amyloidogenic peptides produced by BACE1 cleavage of APP peptide—was measured by an ELISA-like immunoassay method. Aβ levels were normalized to the protein concentration in the lysate in order to rule out differences in total cell number per well of the culture plate. Additionally, the normalized Aβ level was set to 100% for the DMSO-treated control.
HEK293 cells stably overexpressing human APP695 were plated in a poly-D-lysine-coated 96-well plates and grown to a density of 80–90%. Compounds were dissolved in DMSO to make a 10 mM stock solution and diluted in DMEM complete medium to the final concentrations: 0.1, 1.0, 5.0, 10.0, 25.0, and 50.0 µM. DMSO was used at a 1:200 dilution as a negative control and a commercially available BACE1 inhibitor (C3, also known as BACE inhibitor IV) as a positive control. After 23 h of incubation, the cell supernatants were directly used for measurement in the V-Plex Aβ Peptide Panel 1 (6E10) Kit from Meso Scale Diagnostics (Rockville, MD, USA) for measuring Aβ38, −40, and −42 simultaneously. Cells were washed with PBS and lysed in Triton X100 lysis buffer for subsequent protein concentration (BCA) measurement.

MTT cytotoxicity assay = assay type: cell-based; settings: human, 24 h exposure
Method: It is crucial for the BACE1 inhibitors to exert their activities at sub-toxic concentration, and thus their cytotoxicity was assessed in HEK293 cells by 3-[4,5-dimethylthiazol-2-yl]-2,5-diphenyl-tetrazolium bromide (MTT) assays (Table 5). […] Unfortunately, there was no obvious relationship between the structures and their cytotoxicity.
The cytotoxicity was examined by using 3-[4,5-dimethylthiazol-2-yl]-2,5-diphenyl-tetrazolium bromide (MTT) assay. HEK293T cells were seeded with complete DMEM into 96-well plates ([…], 100 µL/well), incubated at 37 °C in a humidified atmosphere with 5% CO2 for 24 h. All the compounds were diluted with the phenol red-free DMEM at a specific concentration. After 24 h of exposure to different concentrations of compound, the supernatant was removed and then 20% (v/v) MTT (5 mg/mL) diluted with fresh culture medium was added into each well and incubated for 4 h. Cells were lysed with 100 μL dimethyl sulfoxide (DMSO) and shaken for 10 min at room temperature. The absorbance in each well was detected at a wavelength of 490 nm using a Universal Microplate Reader (ELX 800 lv, BIO-TEK Instruments, Inc., Winooski, VT, USA).

BACE1 [3] = target: T1, BACE1; design: method as in PMID 31557620; settings: previous work ref 13; cited from earlier work
BACE1 [4] = target: T1, BACE1; assay: Kinetic analysis of BACE1 inhibition (Dixon plot); assay type: biochemical; settings: for Ki: BACE1 substrate 250, 500, 750 nM
Method: The Dixon plot was used to determine the kinetics of 4l, 7c, and 7k inhibiting BACE1.
The Dixon plot is a graphical method (plot of 1/enzyme velocity (1/V) against inhibitor concentration (I)) for determination of the type of enzyme inhibition, which was used to determine the dissociation or inhibition constant (Ki) for the enzyme inhibitor complex. The Dixon plots for BACE1 inhibition were obtained in the presence of various concentrations of BACE1 substrate (250, 500, 750 nM) and the concentrations of 4l, 7c, and 7k as follows: 0.1 µM, 0.5 µM, 1.0 µM. In this way, the inhibition constants (Ki) of 4e were determined by interpretation of Dixon plots, where the value of the x-axis represents −Ki when 1/V = 0. […]
The Dixon plot is a graphical method [plot of 1/enzyme velocity (1/V) against inhibitor
concentration (I)] for determination of the type of enzyme inhibition and was used to determine the
dissociation or inhibition constant (Ki) for the enzyme inhibitor complex (Cornish-Bowden, 1974).
The Dixon plots for BACE1 inhibition were obtained in the presence of various concentrations of […]
BACE1 substrate (250, 500, 750 nM) and the concentrations of 4l, 7c and 7k as follows: 0.1 µM, 0.5 µM,
1.0µM. In this way, the inhibition constants (Ki) of 4e were determined by in terpretation of Dixon
plots, w here t he value of the X -axis represents -Ki when 1/V=0.
Figure 3. Kinetic analysis of 4l.
Figure 4. Kinetic anal ysis of 7k. […]
The BACE1 FRET assay kit was purchased from the PanVera Co. (Invitroge, USA). The assay
was carried out according to the supplied manual with modifications. Briefly, assays were
performed in triplicate in 384-well black plates with a mixture of 5 μL of BACE1 (1.0 U/ml), 5 μL of
the substrate (750 nM, Rh-[…]- Quencherin 50 mM, ammonium bicarbonate), and 5 μL of
compound dissolved in 10% DMSO. The fluorescence intensity was measured with a TECAN
infinite 200 microplate reader for 60 min at 25 °C in the dark. The mixture was irradiated at 544 nm
and the emission intensity recorded at 590 nm. The percent inhibition (%) was obtained by the
following equation: Inhibition % = (1-SS/SC) × 100%, where SC is the slope of fluorescence change of
the control (enzyme, buffer, and substrate) during 60 min, and SS is the slope of fluorescence change
of the tested samples (enzyme, sample solution, and substrate) during 60 min of measurement. […]

BACE2 = target: T2, BACE2 (Homo sapiens, UniProt Q9Y5Z0); assay: Enzyme selectivity: BACE2 inhibition; assay type: biochemical
T2 sequence (Q9Y5Z0 63-518): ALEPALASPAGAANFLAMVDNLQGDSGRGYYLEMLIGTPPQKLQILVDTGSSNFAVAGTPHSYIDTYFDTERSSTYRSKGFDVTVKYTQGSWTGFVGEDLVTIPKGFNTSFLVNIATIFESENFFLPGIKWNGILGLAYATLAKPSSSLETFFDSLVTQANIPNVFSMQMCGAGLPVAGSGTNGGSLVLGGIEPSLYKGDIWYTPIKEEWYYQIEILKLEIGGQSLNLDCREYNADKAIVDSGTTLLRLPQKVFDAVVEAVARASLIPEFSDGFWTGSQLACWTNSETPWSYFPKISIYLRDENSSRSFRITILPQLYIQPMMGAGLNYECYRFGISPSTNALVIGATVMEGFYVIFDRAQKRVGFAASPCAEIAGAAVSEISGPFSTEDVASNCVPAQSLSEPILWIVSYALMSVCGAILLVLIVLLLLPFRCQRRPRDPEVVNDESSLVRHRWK
Source text: (§1) As BACE1 is a member of aspartyl protease family, its selective inhibition over other closely related proteases is required to avoid possible severe side effects.

Renin = target: T3, Renin (Homo sapiens, UniProt P00797); assay: Enzyme selectivity: renin inhibition; assay type: biochemical
T3 sequence (P00797 67-406): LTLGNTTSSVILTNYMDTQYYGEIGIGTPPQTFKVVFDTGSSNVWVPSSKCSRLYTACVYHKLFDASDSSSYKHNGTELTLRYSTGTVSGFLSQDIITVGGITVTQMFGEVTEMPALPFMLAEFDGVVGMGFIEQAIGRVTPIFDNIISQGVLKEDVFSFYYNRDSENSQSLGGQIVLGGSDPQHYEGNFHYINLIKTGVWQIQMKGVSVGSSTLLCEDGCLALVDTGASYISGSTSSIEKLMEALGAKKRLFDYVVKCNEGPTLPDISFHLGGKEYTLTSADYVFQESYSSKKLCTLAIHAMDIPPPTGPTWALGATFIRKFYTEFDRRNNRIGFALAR
Source text: as §1

[5] = BACE1 FRET assay, 10 μM compound
[6] = HEK293 cells (method text: HEK293T)

T1 sequence (P56817 46-501): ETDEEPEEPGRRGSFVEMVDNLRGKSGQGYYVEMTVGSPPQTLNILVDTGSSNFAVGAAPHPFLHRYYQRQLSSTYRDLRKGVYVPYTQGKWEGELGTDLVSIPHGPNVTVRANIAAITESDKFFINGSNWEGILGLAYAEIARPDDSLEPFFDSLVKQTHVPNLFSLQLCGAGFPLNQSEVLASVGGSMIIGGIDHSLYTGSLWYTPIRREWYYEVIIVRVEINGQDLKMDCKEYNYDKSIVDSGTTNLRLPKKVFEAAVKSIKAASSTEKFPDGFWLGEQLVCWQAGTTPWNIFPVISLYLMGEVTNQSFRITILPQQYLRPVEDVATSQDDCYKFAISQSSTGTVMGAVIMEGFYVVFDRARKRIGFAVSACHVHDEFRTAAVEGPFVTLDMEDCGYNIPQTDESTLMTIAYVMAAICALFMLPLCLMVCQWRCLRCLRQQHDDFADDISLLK

Row | Compound | Inhibition Rate at 10 μM (%) (BACE1 [1]; BACE1 FRET assay, 10 μM compound, 10 µM) | inhibition at 10 µM (BACE1 [1]; [5]) [%] | Aβ levels [2] | IC50 at 24 h (MTT cytotoxicity assay; [6]) [µM] | mode of BACE1 inhibition (BACE1 [3]) | IC50 (BACE1 [1]; BACE1 FRET assay) | mode of BACE1 inhibition (BACE1 [4]) | Ki (BACE1 [4]) [µM] | IC50 (BACE2) [µM] | selectivity on BACE1 over BACE2 and renin (BACE1 [1]) | Aβ-42 level ([2]; 25 µM) | IC50 (Renin) [µM] | IC50 at 24 h (MTT cytotoxicity assay; HEK293 cells (method text: HEK293T cells)) [µM] | Aβ-42 levels [2] | enhancement of BACE1 inhibitory activity compared with the flavone segment 1 or conjugate 3 (BACE1 [1]; from IC50) [fold]
1 | O=c1cc(-c2ccc(O)c(O)c2)oc2cc(O)cc(O)c12 [Compound 1, luteolin] | 64.8 ± 6.0 | 68.6 ± 8.9 | dose-dependently reduced Aβ levels | 39.8 |  |  |  |  |  |  |  |  |  |  | 
2 | O=C(/C=C/c1ccc(O)cc1)OCCOc1cc(O)c2c(=O)cc(-c3ccc(O)c(O)c3)oc2c1 [Compound 3] |  | 64.8 ± 6 |  | 62.4 | non-competitive inhibitor | 2.19 µM and 1.87 µM |  |  |  |  |  |  |  |  | 
3 | O=C(/C=C/c1ccc(O)cc1)OCCOc1cccc2c(=O)cc(-c3ccc(O)c(O)c3)oc12 [Compound 4l] |  | 58.4 ± 10.2 |  |  |  | 2.47 ± 0.17 µM | mix-competitive mode | 0.8 |  |  |  |  |  |  | 
4 | O=C(/C=C/c1cccc(O)c1)OCCOc1cc(O)c2c(=O)cc(-c3ccc(O)c(O)c3)oc2c1 [Compound 7c] |  | 66.7 ± 8.3 |  |  |  | 1.44 ± 0.18 µM | non-competitive inhibitor | 1.2 | > 100 | 2–3 orders of magnitude | obvious inhibition | > 100 | 90 |  | 
5 | COc1ccc(/C=C/C(=O)OCCOc2cc(O)c3c(=O)cc(-c4ccc(O)c(O)c4)oc3c2)cc1 [Compound 7i, (E)-2-((2-(3,4-dihydroxyphenyl)-5-hydroxy-4-oxo-4H-chromen-7-yl)oxy)ethyl 3-(4-methoxyphenyl)acrylate] |  | 28.9 ± 4.4 | did not reduce Aβ levels | 3.94 |  |  |  |  |  |  |  |  |  | increased Aβ-42 levels | 
6 | O=C(/C=C/c1cccnc1)OCCOc1cc(O)c2c(=O)cc(-c3ccc(O)c(O)c3)oc2c1 [Compound 7k, (E)-2-((2-(3,4-dihydroxyphenyl)-5-hydroxy-4-oxo-4H-chromen-7-yl)oxy)ethyl 3-(pyridin-3-yl)acrylate] |  | 54.4 ± 3.5 | did not reduce Aβ levels | > 100 |  | 0.15 µM | mix-competitive mode | 0.32 | > 100 | 2–3 orders of magnitude |  | > 100 |  | increased Aβ-42 levels | ~10
7 | O=C(/C=C/c1ccc(O)cc1)NCCOc1cc(O)c2c(=O)cc(-c3ccc(O)c(O)c3)oc2c1 [Compound 8] |  | 59.5 ± 4.4 |  | > 100 |  | 4.15 ± 1.97 µM |  |  | > 100 |  |  | 25.4 |  |  | 
